Results on 7 compounds are retold here after ChEMBL document CHEMBL1157550, “Incorporation of fluorinated phenylalanine generates highly specific inhibitor of proteasome's chymotrypsin-like sites” (J Med Chem, 2010).

The structures appear in SMILES notation. Active and inactive are the calls of the source. The rule behind the calls is not given here.

Assay [1] addresses T1, Proteasome component C5 (Homo sapiens) (UniProt P20618).
T1 sequence (whole entry): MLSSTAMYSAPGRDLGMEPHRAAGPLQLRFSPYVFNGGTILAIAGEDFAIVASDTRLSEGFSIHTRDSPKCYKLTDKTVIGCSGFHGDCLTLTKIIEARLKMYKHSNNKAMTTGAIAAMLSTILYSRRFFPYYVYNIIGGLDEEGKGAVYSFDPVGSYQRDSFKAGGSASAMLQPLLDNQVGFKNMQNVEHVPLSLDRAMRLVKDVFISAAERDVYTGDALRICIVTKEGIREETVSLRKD
As to the kind of experiment: Inhibition of 26S proteasome beta 1 in human HEK293 cell lysate assessed as residual activity at 13.5 uM after 1 hr. In kind it is cell-free.

Assay [2] concerns the target T1, Proteasome component C5 (Homo sapiens). As to the kind of experiment: (§1) Inhibition of 26S proteasome beta 1 in human HEK293 cell lysate assessed as residual activity at […] after 1 hr. It is filed as cell-free.
Assay [3] shares this target. As to the kind of experiment: Inhibition of 26S proteasome beta 1 in human HEK293 cell lysate assessed as residual activity at 1.5 uM after 1 hr. It is filed as cell-free.
Assay [4] shares this target. As to the kind of experiment: Inhibition of 26S proteasome beta 1 in human HEK293 cell lysate assessed as residual activity at 0.5 uM after 1 hr. In kind it is cell-free.
For assay [5] the target is unchanged. Kind of assay: Inhibition of 26S proteasome beta 1 in human HEK293 cell lysate assessed as residual activity at 0.167 uM after 1 hr. It is filed as cell-free.
The target is the same in assay [6]. The assay is described as §1. In kind it is cell-free. The source holds these as a separate data set.
For assay [7] the target is unchanged. Kind of assay: Inhibition of 26S proteasome beta 1 in human HEK293 cell lysate assessed as residual activity at 0.019 uM after 1 hr. It is filed as cell-free.
Assay [8] shares this target. Kind of assay: Inhibition of 26S proteasome beta 1 in human HEK293 cell lysate assessed as residual activity at 0.002 uM after 1 hr. It is filed as cell-free.
Assay [9] has the same target. Kind of assay: Inhibition of 26S proteasome beta 1 in human HEK293 cell lysate assessed as residual activity at 0.001 uM after 1 hr. It is filed as cell-free.
Assay [10] concerns the target Proteasome Macropain subunit (Homo sapiens) (UniProt P49721). As to the kind of experiment: (§2) Inhibition of 26S proteasome beta 2 in human HEK293 cell lysate assessed as residual activity at […] after 1 hr. In kind it is cell-free.
For assay [11] the target is unchanged. Kind of assay: Inhibition of 26S proteasome beta 2 in human HEK293 cell lysate assessed as residual activity at 1.5 uM after 1 hr. It is filed as cell-free.
For assay [12] the target is unchanged. As to the kind of experiment: Inhibition of 26S proteasome beta 2 in human HEK293 cell lysate assessed as residual activity at 0.5 uM after 1 hr. It is filed as cell-free.
For assay [13] the target is unchanged. As to the kind of experiment: Inhibition of 26S proteasome beta 2 in human HEK293 cell lysate assessed as residual activity at 0.167 uM after 1 hr. In kind it is cell-free.
Assay [14] shares this target. The assay is described as §2. In kind it is cell-free. This is another data set of the same source.
For assay [15] the target is unchanged. As to the kind of experiment: Inhibition of 26S proteasome beta 2 in human HEK293 cell lysate assessed as residual activity at 0.019 uM after 1 hr. It is filed as cell-free.
For assay [16] the target is unchanged. Kind of assay: Inhibition of 26S proteasome beta 2 in human HEK293 cell lysate assessed as residual activity at 0.006 uM after 1 hr. In kind it is cell-free.
Assay [17] shares this target. As to the kind of experiment: Inhibition of 26S proteasome beta 2 in human HEK293 cell lysate assessed as residual activity at 0.002 uM after 1 hr. In kind it is cell-free.
For assay [18] the target is unchanged. Kind of assay: Inhibition of 26S proteasome beta 2 in human HEK293 cell lysate assessed as residual activity at 0.001 uM after 1 hr. In kind it is cell-free.
The target of assay [19] is T1, Proteasome component C5 (Homo sapiens). As to the kind of experiment: Inhibition of 26S proteasome beta 1 in human HEK293 cell lysate assessed as residual activity at 0.006 uM after 1 hr. It is filed as cell-free.
For assay [20], the target named is Proteasome Macropain subunit (Homo sapiens) (UniProt P49721). As to the kind of experiment: Inhibition of 26S proteasome beta 2 in human HEK293 cell lysate assessed as residual activity at 13.5 uM after 1 hr. In kind it is cell-free.
Proteasome Macropain subunit (Homo sapiens), sequence (P49721 whole entry): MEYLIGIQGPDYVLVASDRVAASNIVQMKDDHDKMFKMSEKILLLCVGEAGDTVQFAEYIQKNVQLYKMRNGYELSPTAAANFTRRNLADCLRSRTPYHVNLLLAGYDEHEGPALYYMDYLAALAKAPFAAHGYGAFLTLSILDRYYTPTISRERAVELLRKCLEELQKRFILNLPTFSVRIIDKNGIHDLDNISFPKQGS
Assay [21] deals with T1, Proteasome component C5 (Homo sapiens). As to the kind of experiment: Displacement of fluorescent labeled MV151 from 26S proteasome beta 1 in human HEK293 cell lysate assessed as residual activity at 1 uM after 1 hr by SDS-PAGE. It is filed as cell-free.
Assay [22] has the same target. Kind of assay: Displacement of fluorescent labeled MV151 from 26S proteasome beta 1 in human HEK293 cell lysate assessed as residual activity at 100 uM after 1 hr by SDS-PAGE. In kind it is cell-free.
Assay [23] concerns the target Proteasome Macropain subunit (Homo sapiens) (UniProt P49721). As to the kind of experiment: Displacement of fluorescent labeled MV151 from 26S proteasome beta 2 in human HEK293 cell lysate assessed as residual activity at 100 uM after 1 hr by SDS-PAGE. In kind it is cell-free.
Assay [24] has as its target T2, Proteasome Macropain subunit MB1 (Homo sapiens) (UniProt P28074).
T2 sequence (whole entry): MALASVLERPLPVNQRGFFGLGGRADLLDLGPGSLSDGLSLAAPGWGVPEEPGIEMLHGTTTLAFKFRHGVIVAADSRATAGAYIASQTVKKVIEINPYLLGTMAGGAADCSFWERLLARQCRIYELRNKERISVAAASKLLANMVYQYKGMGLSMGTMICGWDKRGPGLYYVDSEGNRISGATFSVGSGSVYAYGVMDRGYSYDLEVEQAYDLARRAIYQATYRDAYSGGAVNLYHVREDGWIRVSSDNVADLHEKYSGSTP
As to the kind of experiment: Displacement of fluorescent labeled MV151 from 26S proteasome beta 5 in human HEK293 cell lysate assessed as residual activity at 1 uM after 1 hr by SDS-PAGE. It is filed as cell-free.

Assay [25] deals with T2, Proteasome Macropain subunit MB1 (Homo sapiens). Kind of assay: Displacement of fluorescent labeled MV151 from 26S proteasome beta 5 in human HEK293 cell lysate assessed as residual activity at 100 uM after 1 hr by SDS-PAGE. It is filed as cell-free.
Assay [26] concerns the target Proteasome Macropain subunit (Homo sapiens) (UniProt P49721). As to the kind of experiment: Displacement of fluorescent labeled MV151 from 26S proteasome beta 2 in human HEK293 cell lysate assessed as residual activity at 1 uM after 1 hr by SDS-PAGE. In kind it is cell-free.
Assay [27] addresses T1, Proteasome component C5 (Homo sapiens). Kind of assay: Displacement of fluorescent labeled MV151 from 26S proteasome beta 1 in human HEK293 cell lysate assessed as disappearance of band at 0.1 to 1 uM after 1 hr by SDS-PAGE. It is filed as cell-free.
Assay [28] addresses T2, Proteasome Macropain subunit MB1 (Homo sapiens). As to the kind of experiment: Displacement of fluorescent labeled MV151 from 26S proteasome beta 5 in human HEK293 cell lysate assessed as disappearance of band at 0.1 to 1 uM after 1 hr by SDS-PAGE. In kind it is cell-free.
Assay [29] addresses Proteasome subunit beta type-5 (Homo sapiens) (UniProt P28074). As to the kind of experiment: Inhibition of 26S proteasome beta 5 in human HEK293 cell lysate assessed as residual activity at […] after 1 hr.
The target is the same in assay [30]. Described as above. This is another data set of the same source.
For assay [31] the target is unchanged. As to the kind of experiment: Inhibition of 26S proteasome beta 5 in human HEK293 cell lysate assessed as residual activity at 1.5 uM after 1 hr.
For assay [32] the target is unchanged. Kind of assay: Inhibition of 26S proteasome beta 5 in human HEK293 cell lysate assessed as residual activity at 0.5 uM after 1 hr.
Assay [33] shares this target. Kind of assay: Inhibition of 26S proteasome beta 5 in human HEK293 cell lysate assessed as residual activity at 13.5 uM after 1 hr.
The target is the same in assay [34]. Kind of assay: Inhibition of 26S proteasome beta 5 in human HEK293 cell lysate assessed as residual activity at 0.167 uM after 1 hr.

In the case of `CC(C)C[C@H](NC(=O)[C@H](Cc1ccccc1)NC(=O)[C@H](Cc1ccccc1)NC(=O)[C@H](Cc1ccccc1)N=[N+]=[N-])C(=O)[C@@]1(C)CO1`, the Activity in assay [1] was found to be 58.3%; in assay [2], 54%; in [3], 69.9%; in assay [4], 58.4%; in [5], 84.9%; in assay [6], 104%. Besides, the Activity in assay [7] was 76.8%; in assay [8], 100%; in [9], 105%; in [10], 26.1%; in assay [11], 37%; in assay [12], 65.8%. The Activity in assay [13] was 89%; in assay [14] it was 115%; in assay [15], 82%; in assay [16] it was 105%; in assay [17], 109%; in assay [18] it was 106%. In addition, the Activity in assay [19] turned out to be 96.5%; in assay [20] it was 10.6%; in assay [21], 139%; in assay [22] it was 7.2%; in [23] it was 133%; in assay [24] it was 4.6%.
With `CC(C)C[C@H](NC(=O)[C@H](Cc1c(F)c(F)c(F)c(F)c1F)NC(=O)[C@H](Cc1ccccc1)NC(=O)[C@H](Cc1ccccc1)N=[N+]=[N-])C(=O)[C@@]1(C)CO1`, the Activity turned out to be 71.2% in assay [1]; 77.6% in assay [2]; 90.1% in [3]; 98.3% in assay [4]; 99.5% in assay [5]; 105% in assay [6]. Further, the Activity in assay [7] was determined as 104%; in [8], 106%; in [9] it was 100%; in [10], 71%; in assay [11], 84.2%; in assay [12], 95.6%. The Activity in assay [13] is 112%; in assay [14] it was 120%; in assay [15] it was 109%; in assay [16], 90.7%; in assay [17], 106%; in assay [18] it was 105%. Also, the Activity in assay [19] is 77.3%; in [20] it was 54.1%; in assay [21], 248%; in assay [22] it was 15.4%; in [23], 116%; in assay [24], 11.6%.
Regarding `CC(C)C[C@H](NC(=O)[C@H](Cc1cc(C(F)(F)F)cc(C(F)(F)F)c1)NC(=O)[C@H](Cc1cc(C(F)(F)F)cc(C(F)(F)F)c1)NC(=O)[C@H](Cc1ccccc1)N=[N+]=[N-])C(=O)[C@@]1(C)CO1`, the Activity in assay [25] was determined as 31%; in [21], 192%; in [22] it was 100%; in assay [26], 48%; in assay [23] it was 149%; in [24], 79%.
In the case of `CC(C)C[C@H](NC(=O)[C@H](Cc1c(F)c(F)c(F)c(F)c1F)NC(=O)c1cnccn1)B1OC2C[C@@H]3C[C@@H](C3(C)C)[C@]2(C)O1` (stereo partly drawn), the Activity in assay [1] was determined as 1.3%; in assay [2] it was 3.1%; in [3], 12%; in assay [4] it was 40.4%; in assay [5], 68.7%; in assay [6] it was 92.1%. The Activity turned out to be 99.5% in assay [7]; 96.1% in assay [8]; 110% in assay [9]; 118% in assay [10]; 135% in [11]; 118% in assay [12]. Also, the Activity in assay [13] was 121%; in assay [14], 118%; in assay [15] it was 102%; in [16], 104%; in [17], 99%; in assay [18], 110%. Further, the values for the Activity in assay [19] and in [20] were 97.5% and 110%, respectively. The result in assay [27] and in [28] was Active.
In the case of `CC(C)C[C@H](NC(=O)[C@H](Cc1ccccc1)NC(=O)c1cnccn1)B1OC2C[C@@H]3C[C@@H](C3(C)C)[C@]2(C)O1` (stereo partly drawn), the outcome in assay [27] and in [28] was Active.
Regarding `CC(C)C[C@H](NC(=O)[C@H](Cc1ccccc1)NC(=O)[C@H](Cc1c(F)c(F)c(F)c(F)c1F)NC(=O)[C@H](Cc1ccccc1)N=[N+]=[N-])C(=O)[C@@]1(C)CO1`, the Activity in assay [25] stood at 0.83%; in assay [1], 73.1%; in [2], 102%; in assay [3], 115%; in assay [4] it was 103%; in assay [5], 89.4%. In addition, the Activity in [6] was 83.2%; in [10], 119%; in assay [11], 127%; in assay [12] it was 118%; in assay [13], 89.9%; in assay [14] it was 98.7%. Moreover, the Activity came to 98.4% in [20]; 82.1% in [21]; 87.6% in assay [22]; 2.9% in assay [26]; 56.9% in assay [23]; 89.1% in assay [24]. For the same compound, the Activity was 8% in [29]; 56.2% in assay [30]; 14.7% in assay [31]; 29.7% in [32]; 5.8% in [33]; 48.9% in [34].
Consider `CC(C)C[C@H](NC(=O)[C@H](Cc1c(F)c(F)c(F)c(F)c1F)NC(=O)[C@H](Cc1c(F)c(F)c(F)c(F)c1F)NC(=O)[C@H](Cc1ccccc1)N=[N+]=[N-])C(=O)[C@@]1(C)CO1`, for which the Activity in [25] was 7.4%; in assay [21], 148%; in assay [22], 115%; in assay [26], 20.4%; in [23] it was 43.2%; in assay [24] it was 94.9%.
